In the METLIN SMRT retention time set (Domingo-Almenara et al. 2019):

Assay: gradient 5% acetonitrile 3 min, to 50% in 2 min, to 85% in 15 min, held 3 min, 100 µL/min
Conditions: column: Zorbax Extend-C18 2.1 x 50 mm; eluents: water / acetonitrile, 0.1% formic acid
How it was run: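 Using water and acetonitrile that each contained 0.1% formic acid, mixtures of ~100 pure standards were separated at 100 μL/min on a Zorbax Extend-C18 column (2.1 × 50 mm, 1.8 μm). The HPLC fed a quadrupole time-of-flight mass spectrometer working in positive and negative ionization mode, with dead and dwell volumes of 40 μL and 900 μL. Data were acquired over 3 months. Retention time was read from computationally picked adduct peaks after manual inspection of each.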

| Compound | RP-LC retention time |
| --- | --- |
| CN1CCN(CCCNC(=O)CCc2cn(-c3ccccc3)nc2-c2ccc3c(c2)OCO3)CC1 | 614 s |
| O=C(NCCn1c(=O)n(Cc2ccccc2)c2cccnc21)c1ccc2c(c1)OCO2 | 773 s |
| O=C(c1ccoc1)N1CCC2(CC1)N=C(c1ccc(Cl)cc1)NO2 | 774 s |
| CCC(=O)N1CCc2sc(C(=O)NCc3ccc(CC)cc3)cc2C1 | 824 s |
| O=C(C1CC(=O)N(c2n[nH]c3cccc(F)c23)C1)N1CCN(c2ccccn2)CC1 (stereo not given) | 582 s |
| O=C(NCc1nc(-c2cccc(-c3ccn[nH]3)c2)no1)c1ccccc1 | 741 s |
| Cc1cccc(-n2c(=O)c3c(cc(C)n3C)n(CC(=O)N(C)c3ccccc3)c2=O)c1 | 864 s |
| CC(=O)N(C)CCc1noc(C2CN(C(=O)c3c(C)noc3C)C2)n1 | 595 s |
| CCCN1CCN(c2cc(C(=O)O)c3cc(NS(=O)(=O)c4ccccc4)ccc3n2)CC1 | 1110 s |
| CCc1ccc(N2C(=O)N(CC(=O)N3CCOc4ccc(C)cc43)C3CS(=O)(=O)CC32)cc1 (stereo not given) | 966 s |
| Nc1nc(CN2CCN(c3ccccn3)CC2)nc(Nc2cccc(Cl)c2)n1 | 788 s |
| CCc1ccccc1N(C)S(=O)(=O)c1ccccc1-c1nc(-c2ccccc2)no1 | 1270 s |
| O=C(Nc1ccc(F)cc1)C1CC(=O)N(CCc2c[nH]c3ccc(F)cc23)C1 (stereo not given) | 785 s |
| CCCn1cc(CCNS(=O)(=O)c2cccc(C#N)c2)c2cccnc21 | 789 s |
| CN1c2cc(F)ccc2C(=O)NC12CCN(C(=O)Cc1ccccc1Cl)CC2 | 783 s |
| O=C(NCc1ccco1)C1CCN(c2cncnc2N2CCOCC2)CC1 | 578 s |
| C[C@@H]1C(=O)O[C@H]2C[C@@]34[C@H]5C[C@@H](C(C)(C)C)[C@]36[C@@H](OC(=O)[C@@H]6O)O[C@@]4(C(=O)O5)[C@]21O | 715 s |
| O=C(NC1CC1)c1ccc(OCC2CCCN(C(=O)c3ccc(F)cc3F)C2)cc1 (stereo not given) | 848 s |

| Compound | RP-LC retention time |
| --- | --- |
| Cc1ccccc1-c1noc(Cn2ccn3nc(-c4ccc5c(c4)OCO5)cc3c2=O)n1 | 1040 s |
| COc1ccc(-c2nc(-c3cccc(-c4ccn[nH]4)c3)no2)c(C)c1 | 1060 s |
| Cn1nc(-c2nc(C3CC3)no2)c2c1CCN(C(=O)c1ccccc1Br)C2 | 821 s |
| CCn1nc(C)n2cc(S(=O)(=O)NCc3ccc(C)o3)cc2c1=O | 815 s |
| COc1ccc2c(c1)c(CN1CCOCCNC(=O)CC1)cn2C(C)C | 642 s |
| CCCCNC(=O)C1CCCN(C(=O)c2cc(C)cc(C)c2)C1 (stereo not given) | 828 s |
| CSc1cccc(NC(=O)Cn2cccc2-c2nc(-c3ccc4c(c3)OCO4)no2)c1 | 1110 s |
| O=[N+]([O-])c1ccc(-c2csc(Nc3ccc4c(c3)OCO4)n2)cc1 | 1110 s |
| O=C(C1=CN(c2ccc(F)cc2)c2ccccc2S1(=O)=O)N1CCOCC1 | 741 s |
| CC1CCCN(c2ccc(-c3noc(CN4CCN(C(C)C)CC4)n3)cn2)C1 (stereo not given) | 628 s |
| Cc1cccc(Nc2nc(C)c(C(=O)N3CCN(c4ccccc4)CC3)s2)n1 | 884 s |
| O=C(Nc1ccccc1)C1CCCN(S(=O)(=O)Cc2ccccc2Cl)C1 (stereo not given) | 976 s |
| CN1c2cc(C(=O)NC3CCN(Cc4ccccc4)CC3)ccc2C(=O)N2CCCCC21 (stereo not given) | 586 s |
| COCCCN1CCC(NC(=O)c2cc(Cl)c(N)c3c2OCC3)CC1 | 641 s |
| COc1cccc(NC(=O)[C@H]2[C@@H](c3cc(OC)c(OC)c(OC)c3)c3cc4c(cc3[C@@H](O)[C@@H]2CO)OCO4)c1 | 704 s |
| CSc1ccc(CNC(=O)c2c(C)oc3ccn(Cc4cccc(F)c4)c(=O)c23)cc1 | 1110 s |
| CCOC(=O)c1c(C)[nH]c(C(=O)N2CCC(CC(=O)NCc3ccc(OC)cc3)CC2)c1C | 694 s |
